Source: a melting point compilation (Tetko et al.)

| Structure (SMILES) | melting point [°C] |
| --- | --- |
| CCOC(=O)Nc1ccc2cc3ccc4c(c3nc2c1)COC(=O)N4 | 235 |
| c1ccc(-c2ccc(-c3cnc(-c4ccc(-c5ccccc5)cc4)o3)cc2)cc1 | 239 |
| COc1ccc(C(=O)NN=C(C)c2c(O)c3ccccc3n(-c3ccccc3)c2=O)cc1 | 218 |
| O=c1c(C=Cc2nc3ccccc3[nH]2)coc2ccccc12 | 260 |
| N#Cc1cc2cc3c4c(c2oc1=O)CCCN4CCC3 | 250 |
| CCOC(=O)CC(SP(=S)(OC)OC)C(=O)OCC (configuration not stated) | 2.8 |
| FC(F)(F)c1cc(Cl)c2cc(CBr)ccc2n1 | 119 to 123 |
| Oc1ccc(Cl)cc1C1CCCCC1 | 59 to 60 |
| C1COCCOCCOCCO1 | 16 |
| Cc1cc(Cl)nnc1Cl | 87 |
| Nc1c(Br)cc(Br)cc1C(O)c1ccccc1 (configuration not stated) | 152 |
| N#C/C(=C/c1cccnc1)c1nc(-c2ccc(Cl)cc2)cs1 | 253 |
| Nc1c(Br)cc(Br)cc1C=O | 136 to 139 |
| CC(=O)Nc1cc(CCNC(=O)c2ccccc2)c(NC(C)=O)cc1CCNC(=O)c1ccccc1 | 285 |
| Cc1ccc(/C=C2\CN(S(=O)(=O)c3ccc(C)cc3)c3ccccc3N2S(=O)(=O)c2ccc(C)cc2)cc1 | 155 |
| O=[N+]([O-])c1ccc(SSc2ccc([N+](=O)[O-])cc2)cc1 | 182 |
| O/N=C1/CC(c2ccccc2)Cc2ccncc21 (configuration not stated) | 227 |
| O=C(O)c1ccc2[nH]cnc2c1 | 300 |
| CCCCOc1ccc(/N=N/c2ccc(CCCC)cc2)cc1 | 64 to 66 |
| Oc1ccnc(Cl)c1 | 171 |
| C#CC1(O)CCC2C3CCC4CC5(CCC4(C)C3CCC21C)OCCO5 (configuration not stated) | 197 to 199 |
| CCOC1Oc2ccc(C)cc2C(=O)/C1=C/Nc1nc2ccc(Cl)cc2s1 (configuration not stated) | 146 to 148 |
| COC(=O)C(C)(C)C(CC(=O)O)c1ccccc1 (configuration not stated) | 111 |
| Cc1ccc2oc(CCC(C)(O)c3ccccc3)c(-c3ccc(C)o3)c2c1 (configuration not stated) | 85 |
| Nc1c(Br)cc(Br)cc1[N+](=O)[O-] | 130 |

| Structure (SMILES) | melting point [°C] |
| --- | --- |
| CCCCCCCCCCCCOc1ccc(C(C)=O)cc1OCCCCCCCCCCCC | 62 to 67 |
| O=C(Cl)N1c2ccccc2Sc2ccccc21 | 168 to 172 |
| COc1cc(/C=N/c2ccccc2)ccc1O | 140 |
| COc1ccc(COC(C)=O)cc1 | 84 |
| O=[N+]([O-])c1c(Cl)c(Cl)c(Cl)c(Cl)c1NCc1ccccc1 | 96 to 97 |
| O=C(O)c1ccnc(C(=O)O)c1C(=O)O | 250 |
| O=Cc1ccc(Br)cn1 | 95 |
| CS(=O)(=O)c1ccc(Br)cc1 | 102 to 105 |
| CC(C)C[C@H](NC(=O)OCC1c2ccccc2-c2ccccc21)C(=O)O | 153 to 157 |
| CCOC(=O)c1sc(C2CCN(C(=O)OC(C)(C)C)CC2)nc1C | 47 |
| CN1CSCSC1 | 65 |
| COc1ccc(C(=O)c2cccc(OC)c2OC)cc1OC | 118 to 120 |
| O=c1n(Cl)c(=O)n(Cl)c(=O)n1Cl | 249 |
| O=C(O)CCc1cccc(O)c1 | 112 |
| CC1CCC2C(C)C3C(CC4C5CC=C6CC(O)CCC6(C)C5CCC43C)N2C1 (configuration not stated) | 218 |
| CCCCCCCCCCOc1ccc(/C=N/c2ccc(/C=C/C(=O)OCC)cc2)cc1 | 114 to 115 |
| ClCc1noc(-c2cccs2)n1 | 67 to 68 |
| Nc1cc(C(=O)O)ccc1O | 198 to 205 |
| Cc1ccc(C(N)=O)cn1 | 197 |
| CC(O)CCc1ccc2c(c1)N(C(=O)c1ccccc1)C(C)CC2 (configuration not stated) | 77 |
| CC(=O)Nc1c(Cl)cccc1Cl | 181 |
| Cc1n[nH]c(SCc2ccc(Cl)cc2)n1 | 151 to 153 |
| Cn1ccc(-c2ccc(CCl)cc2)n1 | 78 to 80 |
| CCc1cccc2c1CCCC2 | -44.5 |
| S=C(SN1CCOCC1)N1CCOCC1 | 139 |

| Structure (SMILES) | melting point [°C] |
| --- | --- |
| Cn1ccc2cc(C(=O)O)ccc21 | 221 to 223 |
| O=C(c1ccccc1)c1ccc(F)c(C(F)(F)F)c1 | 46 |
| COc1ccccc1-c1nnc2n1CN(c1ccccc1)CS2 | 165 |
| CC(=O)OC1CC2C(C)C(=O)C3(C4CC5C(C)(C)CCC(OC(C)=O)C5(C(OC(C)=O)O4)C13)C2OC(C)=O (configuration not stated) | 265 |
| CCC1CCC(C)CC1 (configuration not stated) | -80.8 |
| Nc1c(F)cc(F)cc1F | 35 |
| Cc1cc(C)c2c(N)n[nH]c2n1 | 280 |
| CC(=O)CCc1cc2c(cc1[N+](=O)[O-])CCC(C)N2C(=O)c1ccc([N+](=O)[O-])cc1 (configuration not stated) | 173 |
| O=C(Nc1ccccc1)c1cc([N+](=O)[O-])cc(S(=O)(=O)Nc2ccccc2)c1 | 188 |
| O=[N+]([O-])c1ccc(C(Cl)C(Cl)c2ccc(C(Cl)C(Cl)c3ccc([N+](=O)[O-])cc3[N+](=O)[O-])cc2)c([N+](=O)[O-])c1 (configuration not stated) | 92 to 99 |
| CC(CC1CC(=O)c2c3c(c4ccccc4c2O1)O[C@@H]1CC(=O)O[C@H]31)O[Si](C)(C)C(C)(C)C (some centres not stated) | 131 to 133 |
| O=C1c2ccccc2CC2C=Cc3ccccc3N12 (configuration not stated) | 91 |
| Cc1ccc(NC(N)=S)cc1 | 186 to 188 |
| O=C(NCCNC(=O)c1ccccc1)c1ccccc1 | 244 |
| CCOC(=O)C=CC(=O)O | 70 |
| O=C(O)C(F)(F)C(F)(F)C(F)(F)C(F)(F)C(F)(F)F | 10 |
| CC(=O)OC1CCC2C3CCC4CC=CCC4(C)C3CCC12C (configuration not stated) | 93 to 94 |
| CCCCCCOCCOCCO | -40 |
| Cc1nc(S)sc1C | 166 to 168 |
| N#Cc1cccc(N2CCCCC2)c1 | 133 to 136 |
| BrCC12CC3CC(CC(C3)C1)C2 | 30 to 32 |
| Nc1cc(F)ccc1O | 140 |
| OCc1ccc2nsnc2c1 | 58 to 63 |
| CC(=O)C1CCC2(C)C(CC(=O)C3C4CCC(=O)C4(C)CCC32)C1 (configuration not stated) | 237 |
| CCOC(=O)c1nn(-c2ccc(C)cc2)c(C)c1C(=O)C1=NOC2C(=O)N(c3cc(Cl)ccc3Cl)C(=O)C12 (configuration not stated) | 225 |

| Structure (SMILES) | melting point [°C] |
| --- | --- |
| CN(C)c1ccc(C(C=C2C=Cc3ccccc3N2N=O)c2ccccc2)cc1 (configuration not stated) | 196 |
| O=Cc1ccc(O)c(F)c1 | 123 |
| NC(=S)NCCCN1CCOCC1 | 129 to 131 |
| C1CCC(P(C2CCCCC2)C2CCCCC2)CC1 | 77 to 83 |
| COc1cc2c(c(OC)c1OC)-c1ccc(SC)c(=O)cc1C(NC(C)=O)CC2 (configuration not stated) | 193 |
| CN(C)S(C)(=O)=O | 49 to 50 |
| CC(C=CC1(O)C(C)=CC(=O)CC1(C)C)=CC(=O)O (configuration not stated) | 160 |
| BrCc1cccc(N2CCCC2)n1 | 69 to 72.5 |
| CCCCCCCCCCCCCCCCC(=O)OCC | 28 |
| Cc1ccccc1-n1ncc(C(=O)O)c1C | 142 to 147 |
| O=c1c(Cl)c(SCc2ccccc2)cnn1-c1ccccc1 | 138 to 140 |
| Cc1nnc(NS(=O)(=O)c2ccc(N)cc2)s1 | 208 |
| COC(=O)C1(C(=O)OC)Cc2c(C)c(C)c(C)c(C)c2C(=O)O1 | 166 |
| CCN(CC)CCn1cnc2c1c(=O)n(C)c(=O)n2C | 75 |
| CCOC(=O)c1cnc2n(c1=O)CCS2 | 175 to 176 |
| Cc1ccc(Oc2ccc([N+](=O)[O-])cc2)cc1 | 69 |
| Cc1ccc([N+](=O)[O-])c(Cl)c1 | 24 |
| Cc1nc(-c2ccc(Br)s2)cs1 | 78 to 79 |
| O=C(Nc1cccc(N=[N+]([O-])c2cccc(NC(=O)c3ccccc3)c2)c1)c1ccccc1 | 247 |
| Oc1ccc2ccccc2c1CN1CCCCC1 | 93 to 94 |
| O=C1OC(C2CCCCC2)Cc2ccccc21 (configuration not stated) | 71 to 74 |
| CCCCCCCCCCCCCCCCCC(=O)OC(=O)CCCCCCCCCCCCCCCCC | 72 |
| NNC(=O)c1ccc(-c2ccccc2F)cc1 | 153 to 155 |
| N#Cc1ccc2ccccc2n1 | 95 |
| O=C1CN=C(c2ccccc2)c2cc(Cl)ccc2N1CC1CC1 | 146 |

| Structure (SMILES) | melting point [°C] |
| --- | --- |
| Cc1nc(-c2ccc(N=C=O)cc2)cs1 | 80 to 81 |
| CN(C)CCCOc1ccccc1CO | 55 to 57 |
| COc1cc2c(c3oc(=O)c4c(c13)CCC4=O)C1C=COC1O2 (configuration not stated) | 268 to 269 |
| COc1ccc(OC)c2c1CC2=O | 105 |
| CN(C(=S)Cl)c1ccccc1 | 31 to 34 |
| CC=C(c1ccccc1)c1ccccc1 | 49 |
| O=C(NC(c1ccccc1)C(O)C(=O)O)c1ccccc1 (configuration not stated) | 170 |
| Cc1nc(N)nc2c1c(=O)n(-c1ccccc1)c1ccccc21 | 233 |
| CC(C)(C)OC(=O)NN1CCCC1C(=O)O (configuration not stated) | 134 to 137 |
| O=[N+]([O-])c1ncccc1Cl | 91 |
| N#Cc1ccc(Oc2ccccc2)cc1 | 45 to 48 |
| O=[N+]([O-])c1ccc(Cl)nc1 | 107 |
| CC(OC1C(N)C(O)OC(CO)C1O)C(=O)O (configuration not stated) | 148 |
| O=Cc1cccc(-c2cncnc2)c1 | 148 to 149 |
| CCOC(=O)CN(CCCN(CC(=O)OCC)S(=O)(=O)c1ccc(C)cc1)S(=O)(=O)c1ccc(C)cc1 | 130 |
| CC(C)(C)C(O)C(=Cc1ccc(Cl)cc1Cl)n1cncn1 (configuration not stated) | 148 to 149 |
| Cc1cc(C(F)(F)F)n2nc(N)c(/N=N/c3c(Cl)cc(Cl)cc3Cl)c2n1 | 189 |
| CC(=O)OC1CCC2(C)C(=CCC3C4CCC(=O)C4(C)CCC32)C1 (configuration not stated) | 147 |
| O=Cc1cccc2ccsc12 | 42 to 43.5 |
| O=C(NC1CCCCC1)C(C(F)(F)F)C(F)(F)F | 190 to 192 |
| CC1(C)CCC2(C(=O)O)C(O)CC3(C)C(=CCC4C5(C)CCC(O)C(C)(C=O)C5CCC43C)C2C1 (configuration not stated) | 294 |
| O=C(NC1(C(=O)O)Cc2ccccc2C1)OCC1c2ccccc2-c2ccccc21 | 198 to 202 |
